In patent publication US8058309B2, “Protein kinase modulators and therapeutic uses thereof” (Novotyr Therapeutics Ltd., priority 2006, dated 2011):
Where two headings read alike, the source gives them in different places.

Assays:
YUMAC = experiment: Proliferation assay YUMAC; type: cell-based; conditions: Homo sapiens
Description: (§1) Various cancer cell lines (listed in table 1) were plated at a density of 1000-5000 cells/well in 96-well plates in 90111 growth medium containing 10% FCS, 100 units/ml penicillin and 100 μg/ml streptomycin. Inhibitors were added a day later in 10 μl of 1% DMSO in DDW to obtain final concentrations of 0, 0.1, 0.3, 1, 3, and 10 μM. The final concentration of DMSO (0.1% DMSO) was kept constant in all samples. Medium with inhibitors was refreshed a day and two days later. Following exposure of the cells to the inhibitors for 72 hours at 37° C., the cells were fixed in 0.5% gluteraldehyde in medium for 10 min, washed three times with DDW, once with 0.1M sodium borate buffer pH 8.5 and stained with 1% methylene blue dissolved in 0.1M borate buffer solution for 60 min. Excess dye was washed out and cell-bound dye was eluted with 200 μl/well of 0.1 M HCl. The optical density value was read at 620 nm in ELISA plate reader. The data was analyzed in Microsoft Excel, using the vehicle control as 100% proliferation. The assays were performed in triplicates. The values in table 1 represent IC50 values derived from the dose-dependent growth curves obtained.
(§2) Compounds 6, 7, 8, and 9 were tested for their inhibitory potential in cell proliferation assay. In this assay cells were exposed to increasing concentrations of the molecules (at 0.1% DMSO in all wells) a day after seeding. Medium and inhibitors were refreshed every day, and following three days of treatment, cells were fixed and stained with methylene-Blue. IC50 values were determined from the curves of the optical density against compound concentration. The assay was performed in triplicates.

A2780 tumors = experiment: Ovarian cancer A2780 xenograft tumor growth; type: in vivo, nude mice; conditions: for Inhibition of ovarian tumor growth, comparative study: A2780, IP once a day, 20 mg/kg (FIG. 13); for Growth inhibition of ovarian cancer A2780 tumors / Growth inhibition of ovarian A2780 tumors: IP, 1/day; for Growth inhibition of ovarian cancer A2780 tumors: 20 mg/kg (FIG. 12); for Growth inhibition of ovarian A2780 tumors: 50 mg/kg
Description: Human hormone-refractory prostate cancer PC3 cells (ATCC, 1.5×10^6 cells per mouse) were injected subcutaneously into the right leg of Nude:Hsd mice (purchased from Harlan). Ten days later, when palpable tumors had developed, mice were divided into 3 groups with similar average tumor size. […] The mice treated with compound 7 group were daily injected with compound 7 dissolved in the below described vehicle, and the vehicle-treated group (veh) was daily injected by the vehicle alone. Vehicle included 4.4% DMSO, 1.2% Ethanol and 50% PEG400 in DDW; Groups were composed of 3 mice per group. Dose administered IP was 50 mg/Kg (4 ml/Kg) once a day for one month. The length (l) and the width (w) of the tumors were measured every day and the volumes of the tumors were calculated as follows: v=1w^2/2. Graphs present average volumes of the tumors versus time in days. The procedure was followed for the other described in-vivo studies with the following modifications:
Human ovary cancer A2780 cells (from ECACC, 2×10^6 cells per mouse) were injected subcutaneously into the right leg of female Nude:Hsd mice (purchased from Harlan). Inhibitors were injected IP daily at doses of 20 mg/kg (Exp. 2&3) or 50 mg/kg (Exp. 4) dissolved in 4.4% DMSO, 0.12% EtOH, 50% PEG-400 in DDW at volume of 4 ml/kg. The Veh group received 4.4% DMSO, 0.12% EtOH, 50% PEG-400 in DDW at volume of 4 ml/kg.

MO59J = experiment: Proliferation assay MO59J; type: cell-based; conditions: Glioma, 72 hours
Description: as §1, §2

MCF-7 = experiment: Proliferation assay MCF-7; type: cell-based; conditions: Homo sapiens, MCF7, Breast, 72 hours
Description: as §1, §2

BAF3 Bcr-Abl = experiment: Proliferation assay BAF3 Bcr-Abl; type: cell-based; conditions: Mus musculus, Pro B, 72 hours
Description: as §1, §2

A2780 [1] = experiment: Proliferation assay A2780; type: cell-based; conditions: Homo sapiens, Ovarian, 72 hours
Description: as §1, §2

HT29 = experiment: Clonogenic assay HT29; type: cell-based; conditions: Homo sapiens, HT-29, Colon
Description: (§3) Various cancer cells (listed in table 1) were seeded at a very low concentration (19 cells/well in 96-well plates or 63 cells/well in 24-well plates) in growth medium. A day later medium was replaced with growth medium containing various concentrations of inhibitors in a final concentration of 0.1% DMSO. The inhibitor-containing medium was refreshed three times a week. Following approximately two weeks cells were fixed by adding Gluteraldehide (0.5% final concentration) for 10 min, washed three time with DDW, once with borate buffer 0.1M and stained for 1 hour with 1% Methylene Blue in borate buffer 0.1M. Access stain was washed with water, and following drying colonies were counted. Alternatively, stain was extracted by 0.1N HCl for 1 hour and absorbance at 620 nm was measured by ELISA Reader. The assays were performed in triplicates. The values in table 1 represent IC50 values derived from the dose-dependent growth curves obtained.

A2780 [2] = experiment: Clonogenic assay A2780; type: cell-based; conditions: Homo sapiens, Ovarian
Description: as §3

QG56 = experiment: Proliferation assay QG56; type: cell-based; conditions: Homo sapiens, QG-56, Lung, 72 hours
Description: as §1, §2

U138MG = experiment: Proliferation assay U138MG; type: cell-based; conditions: Homo sapiens, U138-MG, Glioma, 72 hours
Description: as §1, §2

IGF1R = molecular target: T1, IGF1R (Homo sapiens, UniProt P08069); experiment: IGF1R cellular free kinase assay (pGT substrate phosphorylation); type: biochemical; conditions: for Competition with ATP (kinetic studies): elevation of ATP concentration
T1 construct: made in house
T1 sequence (P08069 31-1367, species assumed): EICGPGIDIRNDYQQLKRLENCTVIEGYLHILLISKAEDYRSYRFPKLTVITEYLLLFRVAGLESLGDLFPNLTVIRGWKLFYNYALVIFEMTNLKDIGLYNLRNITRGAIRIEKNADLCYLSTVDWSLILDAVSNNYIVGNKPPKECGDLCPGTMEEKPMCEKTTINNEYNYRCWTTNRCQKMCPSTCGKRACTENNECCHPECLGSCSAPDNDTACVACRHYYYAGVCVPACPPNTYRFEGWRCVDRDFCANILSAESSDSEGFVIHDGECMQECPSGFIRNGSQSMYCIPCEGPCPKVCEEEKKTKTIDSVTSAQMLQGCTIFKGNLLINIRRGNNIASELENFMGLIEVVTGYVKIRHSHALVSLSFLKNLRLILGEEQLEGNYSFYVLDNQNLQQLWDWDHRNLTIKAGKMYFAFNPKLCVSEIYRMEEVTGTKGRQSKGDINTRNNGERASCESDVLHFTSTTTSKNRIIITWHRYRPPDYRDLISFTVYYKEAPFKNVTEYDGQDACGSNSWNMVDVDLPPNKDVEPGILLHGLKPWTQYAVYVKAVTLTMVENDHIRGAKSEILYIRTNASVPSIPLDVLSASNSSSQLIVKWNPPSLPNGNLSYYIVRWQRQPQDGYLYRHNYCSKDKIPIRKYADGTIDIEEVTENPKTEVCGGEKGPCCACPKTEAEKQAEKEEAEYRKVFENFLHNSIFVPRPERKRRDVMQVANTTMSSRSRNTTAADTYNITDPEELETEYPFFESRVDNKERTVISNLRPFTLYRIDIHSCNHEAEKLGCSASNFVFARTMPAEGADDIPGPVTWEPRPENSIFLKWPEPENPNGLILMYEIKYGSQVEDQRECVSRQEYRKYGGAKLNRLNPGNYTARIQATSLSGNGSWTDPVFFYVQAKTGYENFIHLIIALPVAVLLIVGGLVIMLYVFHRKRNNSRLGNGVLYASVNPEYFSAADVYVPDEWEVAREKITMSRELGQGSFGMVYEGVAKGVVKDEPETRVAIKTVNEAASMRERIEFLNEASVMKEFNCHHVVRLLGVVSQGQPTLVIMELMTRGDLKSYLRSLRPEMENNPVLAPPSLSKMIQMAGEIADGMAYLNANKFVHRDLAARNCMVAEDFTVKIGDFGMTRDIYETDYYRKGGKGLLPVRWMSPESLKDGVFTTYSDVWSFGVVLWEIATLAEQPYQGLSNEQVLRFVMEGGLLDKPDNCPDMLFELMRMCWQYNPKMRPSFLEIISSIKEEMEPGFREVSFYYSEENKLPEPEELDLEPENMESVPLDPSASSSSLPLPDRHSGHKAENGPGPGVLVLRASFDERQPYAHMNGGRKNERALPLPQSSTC
Description: The general protein-tyrosine kinase substrate, poly(Glu,Tyr) 4:1 (pGT), was coated onto a 96-well Maxisorp plates (Nunc) by adding 125 μl of 0.1 mg/ml pGT in PBS to each well. Plates were sealed and incubated for 16 hours at 37° C., washed once with TBST (10 mM Tris-HCl, pH 7.5, 50 mM NaCl, and 0.1% Triton X-100) and once with DDW, dried for 2-3 hours, and stored at 4° C. […] The plate was then washed with TBS with 0.2% Tween 20 (TBST) and blocked with 0.5% BSA in TBST. Mouse monoclonal anti-phosphotyrosine antibody, conjugated to Horse radish peroxidase (PT-66, 1:50000) was added to the plate. Following incubation for 45 min at room temperature, the plate was washed repeatedly with TBST. Detection was carried out with a color reagent, 2,2′-azido-bis-3-ethylbenzithiazoline-6-sulfonic acid, in citrate-phosphate buffer, pH 4.0, with 0.004% H2O2 for 10 min and monitored at 405 nm, all at room temperature. IC50 values of inhibitors were calculated using the REGRESSION program. The assay was optimized with respect to the amount of IGF-1R (partially purified from cells overexpressing IGF1R), reaction time, and ATP concentration. The signal was linear for 30 min in the range of IGF1R protein concentrations up to 35 ng/well.

[3] = Melanoma, YUMAC, 72 hours, read-out: Proliferation assay IC50
[4] = Table 4, 72 hours incubation, read-out: Inhibition of human metastatic melanoma cells, YUMAC IC50
[5] = [ATP] 2.5 μM, read-out: IC50, competition with ATP in cellular free kinase assay of IGF1R
[6] = [ATP] 5 μM, read-out: IC50, competition with ATP in cellular free kinase assay of IGF1R
[7] = [ATP] 10 μM, read-out: IC50, competition with ATP in cellular free kinase assay of IGF1R
[8] = [ATP] 20 μM, read-out: IC50, competition with ATP in cellular free kinase assay of IGF1R
[9] = [ATP] 50 μM, read-out: IC50, competition with ATP in cellular free kinase assay of IGF1R
[10] = partially purified IGF1R, 20 μM ATP, read-out: IC50 values of IGF1R activity in cellular free kinase assay

IC50 (MCF-7) [nM]	IC50 (BAF3 Bcr-Abl) [nM]	IC50 (A2780 [1]) [nM]	IC50 (HT29) [nM]	IC50 (A2780 [2]) [nM]	IC50 (IGF1R; [5]) [nM]	IC50 (IGF1R; [6]) [nM]	IC50 (IGF1R; [7]) [nM]	IC50 (IGF1R; [8]) [nM]	IC50 (IGF1R; [9]) [nM]	Competition with ATP (kinetic studies) (IGF1R)	IC50 (IGF1R; [10]) [nM]	Structure (SMILES)	IC50 (YUMAC; [3]) [nM]	IC50 (YUMAC; [4]) [nM]	Inhibition of ovarian tumor growth, comparative study (A2780 tumors)	IC50 (MO59J) [nM]	IC50 (QG56) [nM]	IC50 (U138MG) [nM]	Growth inhibition of ovarian cancer A2780 tumors (A2780 tumors) [%]	also measured
2100	7700	6800	9500	100	74	56	92	55	98	do not compete with ATP	98	N#C/C(=C\c1cc(O)c(O)c(Br)c1)C(=S)NCc1cc(O)c(O)c(Br)c1 [Compound 6]	8500	8500	33%	8300	> 10000	2000	–	–
4800	8200	600	2800	400	190	163	124	90	80	do not compete with ATP	116	N#C/C(=C\c1cc(O)c(O)c(Br)c1)C(=S)NCc1cc(O)c(O)c(O)c1 [Compound 7]	1200	1200	approximately 90%	2100	5200	800	87	–
2800	> 10000	600	5600	400	190	110	100	80	100	do not compete with ATP	76	N#C/C(=C\c1cc(O)c(O)c(I)c1)C(=S)NCc1cc(O)c(O)c(O)c1 [Compound 8]	1200	1200	approximately 90%	1600	4400	800	87	Growth inhibition of ovarian A2780 tumors (A2780 tumors; tumors larger than 50 mm^3 at start): 82%; Growth inhibition of ovarian A2780 tumors (A2780 tumors; tumors larger than 470 mm^3 at start): approximately 85%
2500	6100	400	1600	300	–	–	–	–	–	–	78	Oc1cc(CNC(=S)/C=C/c2cc(O)c(O)c(Br)c2)cc(O)c1O [Compound 9]	600	600	approximately 90%	900	2000	200	–	–
